# Measurements from patent US6821988B2, “3-cyanoquinolines as inhibitors of EGF-R and HER2 kinases” (Wyeth Holdings Corporation, priority 2001, dated 2004).
# Experiments:
# [1] = target: T1, human HER2 cytoplasmic domain (HER2-CD, amino acid 676-1255) (Homo sapiens, UniProt P04626); assay: Inhibition of HER2 kinase autophosphorylation, recombinant enzyme, DELFIA/time-resolved fluorometry; type: biochemical; conditions: for IC50: recombinant HER2 autophosphorylation
# T1 construct: human HER2 cytoplasmic domain (HER2-CD, amino acid 676-1255); made in house; host or cells: Sf-9 insect cells, baculovirus (pBlueBacHis2B)
# Method: (§1) A 1.7 kb cDNA encoding human HER2 cytoplasmic domain (HER2-CD, amino acid 676-1255) and 1.6 kb cDNA for EGFR cytoplasmic domain (EGFR-CD, amino acid 645-1186) were cloned into baculoviral expression vectors, pBlueBacHis2B (Invitrogen) and pFASTBacHTc (GIBCO), separately. A sequence encoding (His)6 is located at the 5′ end upstream to HER2 and EGFR sequences. Sf-9 cells were infected at moi=10 for 3 days for protein expression. Sf-9 cell pellets were solubilized on ice in buffer containing 50 mM HEPES, pH 7.4, 10 mM NaCl, 1% Triton, 10 μM ammonium molybdate, 100 μM sodium vanadate, 10 μg/ml aprotinin, 10 μg/ml leupeptin, 10 μg/ml pepstatin, and 16 ug/ml benzamidine HCl for 20 min followed by 20 min centrifugation. Crude extract supernatant was passed through equilibrated Ni-NTA superflow packed column (Qiagen, Valencia, Calif.) and wash with 10 mM, and 100 mM imidazole to remove unspecific binding. Histidine-tagged proteins were eluted with 250 mM and 500 mM imidazole and dialyzed against 50 mM NaCl, 20 mM HEPES, 10% glycerol and 1 μg/ml each of aprotinin, leupeptin and pepstatin for 2 h. All the purification procedure was performed at 4° C. or on ice. Purified materials were subjected for electrophoresis followed by Coommassie blue stain to determine the purity of the preparation and Western blot for the identity of protein. Enzymes were aliquoted and stored at −80° C.
# (§2) Inhibition of EGFR and HER2 kinase autophosphorylation was measured by a DELFIA/time-resolved fluorometry assay. Compounds were dissolved in 100% DMSO and diluted to the appropriate concentrations with 25 mM HEPES, pH 7.4. In each well, 10 μl of compound was incubated with 10 μl of recombinant EGF-R or HER2 enzyme (1:80 dilution in 100 mM HEPES) for 10 min at room temperature. Then, 10 μl of 5×buffer (containing 20 mM HEPES, 2 mM MnCl2, 100 uM Na3VO4 and 1 mM DTT) and 20 μl of 0.1 mM ATP/50 mM MgCl2 was added for 1 h. Positive and negative controls were included in each plate by incubation of enzyme with or without ATP/MgCl2. At the end of incubation, liquid was aspirated and washed three times with wash buffer. 75 μl (400 ng).of europium-labeled anti-phosphotyrosine antibody was added to each well for another hour of incubation. After wash, enhancement solution was added and the signal was detected by Victor (Wallac Inc) with excitation at the wavelength of 340 nm and emission at the wavelength of 615 nm. All reagents were supplied by Wallac Inc (Wallac/Perkin-Elimer). Percentage of autophosphorylation inhibition by compound was calculated by […]. IC50 values were obtained from curves of percentage inhibition with 8 doses of compound.
# [2] = system: MDA-MB435 (breast carcinoma); assay: Inhibition of cancer cell growth, sulforhodamine B assay, MDA-MB435; type: cell-based, human; conditions: MDA-MB435, 2 days; for IC50: Homo sapiens, MDA-MB-435, 48 h, read-out: Inhibition of Cancer Cell Growth in vitro IC50, MDA-MB435
# Method: (§3) […], A431 (epidermoid carcinoma), SKBR3 (breast carcinoma), SW620 (colon carcinoma), and MDA-MB435 (breast carcinoma), BT474 (breast carcinoma), and two murine lines, 3T3 (murine fiboblasts) and HER2-3T3 (murine fiboblasts transfected with human HER2) were used for cell proliferation assays. Cells were maintained in RPMI -1640 medium supplemented with 5% fetal bovine serum. Cells were plated in 96-well plates at the densities of 2.5×10^4/ml for 3T3 and 3T3/HER2 and 5.0×10^4/ml for the rest of the cell lines. On the next day, compounds were dosed at 0.5, 5, 50, 500, and 5000 ng/ml and cultured for 2 days. At the end of incubation, cell survival was determined by the sulforhodamine B assay as previously described (Skehan, P; Stornet, R.; Scudiero, D.; Monks, A.; McMahon, J.; Vistica D., Warren, J.; Bokbosch, H.; Kenny, S.; Boyd, M. New Colorimetric Cytotoxic Assay for Anticancer-Drug Screening. J. Natl. Cancer Inst. 1990, 82, 1107-1112). The IC50 values (the concentration needed to inhibit cell growth by 50%) were obtained from the growth curves and are shown below in Table 2 where the results of multiple determinations are included.
# [3] = system: SW620 (colon carcinoma); assay: Inhibition of cancer cell growth, sulforhodamine B assay, SW620; type: cell-based, human; conditions: SW620, 2 days; for IC50: Homo sapiens, SW-620, 48 h, read-out: Inhibition of Cancer Cell Growth in vitro IC50, SW620
# Method: as §3
# [4] = system: A431 (epidermoid carcinoma); assay: Inhibition of cancer cell growth, sulforhodamine B assay, A431; type: cell-based, human; conditions: A431, 2 days; for IC50: Homo sapiens, A-431, 48 h, read-out: Inhibition of Cancer Cell Growth in vitro IC50, A431
# Method: as §3
# [5] = system: SKBR3 (breast carcinoma); assay: Inhibition of cancer cell growth, sulforhodamine B assay, SKBR3; type: cell-based, human; conditions: SKBR3, 2 days; for IC50: Homo sapiens, SK-BR-3, 48 h, read-out: Inhibition of Cancer Cell Growth in vitro IC50, SKBR3
# Method: as §3
# [6] = system: 3T3 (murine fiboblasts); assay: Inhibition of cell growth, sulforhodamine B assay, 3T3; type: cell-based; conditions: 3T3, 2 days; for IC50: Mus musculus, 48 h, read-out: Inhibition of Cancer Cell Growth in vitro IC50, 3T3
# Method: as §3
# [7] = system: HER2-3T3 (murine fiboblasts transfected with human HER2); assay: Inhibition of cell growth, sulforhodamine B assay, HER2-3T3; type: cell-based; conditions: HER2-3T3, 2 days; for IC50: Mus musculus, 48 h, read-out: Inhibition of Cancer Cell Growth in vitro IC50, HER2-3T3
# Method: as §3
# [8] = target: T2, EGFR cytoplasmic domain (EGFR-CD, amino acid 645-1186) (Homo sapiens, UniProt P00533); assay: Inhibition of EGF-R kinase autophosphorylation, recombinant enzyme, DELFIA/time-resolved fluorometry; type: biochemical
# T2 construct: EGFR cytoplasmic domain (EGFR-CD, amino acid 645-1186); made in house; host or cells: Sf-9 insect cells, baculovirus (pFASTBacHTc)
# Method: as §1, §2
# [9] = system: Murine 3T3 fibroblasts, tranfected with Her2; assay: In vivo inhibition of the growth of tumors of murine 3T3 fibroblasts transfected with HER2 in nude mice; set-up: species or system Athymic nu/nu female mice
# Method: Representative compounds of this invention (listed below) were evaluated in an in vivo standard pharmacological test procedure which measures their ability to inhibit tumor growth in nude mice. Murine 3T3 fibroblasts, tranfected with Her2 were grown in vitro. Athymic nu/nu female mice (Charles River, Wilmington, Mass.) were used in this in vivo standard pharmacological test procedure. A unit of 2×10^6 cells was injected SC into mice (day zero). Beginning on day 1, mice were treated IP every other day for a total of 11 days with a dose of 30 mg/kg/dose of the compound to be evaluated in 0.5% Methocel/0.4% Tween 80. Control animals received vehicle alone. […] Absolute tumor growth in mgs, (mean tumor mass on days 7, 14 and 21), is calculated for each treatment group. Statistical analysis (Student t-test) of Mean Tumor Mass compares treated verses control groups. A p-value of ≦0.05 indicates a statistically significant reduction in tumor growth of treated group compared to the vehicle control.
# The compound of Example 7 was evaluated for its ability to inhibit the growth of a murine fiboblast tumor that was transfected with human HER2 in vivo using the standard pharmacological test procedure described above.
# [10] = 30 mg/kg/dose IP on days 1, 3, 5, 7, 9 and 11, day 7
# [11] = 30 mg/kg/dose IP on days 1, 3, 5, 7, 9 and 11, day 14
# T2 sequence (P00533 669-1210): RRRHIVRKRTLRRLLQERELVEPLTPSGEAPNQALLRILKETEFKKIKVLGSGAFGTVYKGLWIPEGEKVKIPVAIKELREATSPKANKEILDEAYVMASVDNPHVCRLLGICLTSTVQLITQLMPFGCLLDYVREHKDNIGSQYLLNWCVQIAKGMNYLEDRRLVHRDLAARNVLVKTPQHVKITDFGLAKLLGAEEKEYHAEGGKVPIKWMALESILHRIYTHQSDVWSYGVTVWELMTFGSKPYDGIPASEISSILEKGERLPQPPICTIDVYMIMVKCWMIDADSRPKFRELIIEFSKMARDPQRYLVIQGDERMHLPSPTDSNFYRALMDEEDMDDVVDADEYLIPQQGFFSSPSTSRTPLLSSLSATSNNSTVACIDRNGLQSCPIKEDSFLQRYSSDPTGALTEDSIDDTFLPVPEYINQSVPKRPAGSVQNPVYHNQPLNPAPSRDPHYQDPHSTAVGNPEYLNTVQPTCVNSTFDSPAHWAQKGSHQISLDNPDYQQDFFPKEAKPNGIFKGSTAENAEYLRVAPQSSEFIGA
# T1 sequence (P04626 676-1255): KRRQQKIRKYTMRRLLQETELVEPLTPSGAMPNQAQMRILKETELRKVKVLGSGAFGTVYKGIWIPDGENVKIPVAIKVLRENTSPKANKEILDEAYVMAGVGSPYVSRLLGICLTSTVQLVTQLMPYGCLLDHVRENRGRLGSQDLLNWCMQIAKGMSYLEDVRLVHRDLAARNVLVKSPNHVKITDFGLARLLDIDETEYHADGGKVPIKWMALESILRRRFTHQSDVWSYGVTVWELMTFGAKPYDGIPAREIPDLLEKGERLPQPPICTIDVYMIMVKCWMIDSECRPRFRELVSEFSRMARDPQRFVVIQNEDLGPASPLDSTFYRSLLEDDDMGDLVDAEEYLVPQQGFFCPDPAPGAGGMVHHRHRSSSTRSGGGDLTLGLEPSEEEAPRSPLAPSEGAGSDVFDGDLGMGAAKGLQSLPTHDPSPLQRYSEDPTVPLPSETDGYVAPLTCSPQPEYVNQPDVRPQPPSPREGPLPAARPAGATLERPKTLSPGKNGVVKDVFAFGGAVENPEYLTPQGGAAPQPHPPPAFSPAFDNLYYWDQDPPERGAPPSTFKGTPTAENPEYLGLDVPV
Structure (SMILES),IC50 [2],"Inhibition of Cancer Cell Growth in vitro IC50, MDA-MB435 [2]",IC50 [3],"Inhibition of Cancer Cell Growth in vitro IC50, SW620 [3]","Inhibition of Cancer Cell Growth in vitro IC50, A431 [4]",IC50 [4],IC50 [5],"Inhibition of Cancer Cell Growth in vitro IC50, SKBR3 [5]","Inhibition of Cancer Cell Growth in vitro IC50, 3T3 [6]",IC50 [6],"Inhibition of Cancer Cell Growth in vitro IC50, HER2-3T3 [7]",IC50 [7],melting point,IC50 [1],EGF-R IC50 [8],other results
"COc1cc2ncc(C#N)c(Nc3ccc(F)c(Cl)c3)c2cc1NC(=O)CC(CN1CCC(O)C1)N1CCC(O)C1 (stereo not shown) [Example 2, N-[4-(3-Chloro-4-fluoro-phenylamino)-3-cyano-7-methoxy-quinolin-6-yl]-3,4-bis-(3-hydroxy-pyrrolidin-1-yl)-butyramide]",4.05 µg/mL,3.25 µg/mL,2.95 µg/mL,2.58 µg/mL,0.466 µg/mL,0.572 µg/mL,0.129 µg/mL,0.128 µg/mL,4.39 µg/mL,4.47 µg/mL,0.702 µg/mL,1.26 µg/mL,139 to 143 °C,–,–,inhibition at 2 µg/mL ([1]; read-out: HER2 % Inhibition at 2 μg/mL): 57%
"CCOc1cc2ncc(C#N)c(Nc3ccc(F)c(Cl)c3)c2cc1NC(=O)CC(C)N(C)C (stereo not shown) [Example 3, N-[4-(3-Chloro-4-fluoroanilino)-3-cyano-7-ethoxy-6-quinolinyl]-3-(dimethylamino)butanamide]",–,–,1.1 µg/mL,–,0.27 µg/mL,0.48 µg/mL,0.11 µg/mL,0.17 µg/mL,–,1.3 µg/mL,–,1.7 µg/mL,–,10 µM,0.33 µg/mL,–
"CCOc1cc2ncc(C#N)c(Nc3ccc(OCc4ccccc4)c(Cl)c3)c2cc1NC(=O)CC(CCCN(C)C)N(C)C (stereo not shown) [Example 5, N-{4-[4-(Benzyloxy)-3-chloroanilino]-3-cyano-7-ethoxy-6-quinolinyl}-3,6-bis(dimethylamino)hexanamide]",0.36 µg/mL,0.49 µg/mL,0.19 µg/mL,–,0.73 µg/mL,0.87 µg/mL,–,–,–,0.42 µg/mL,–,1.1 µg/mL,–,1.59 µM,1.0 µg/mL,–
"CCOc1cc2ncc(C#N)c(Nc3ccc(OCc4ccccc4)c(Cl)c3)c2cc1NC(=O)CC(CN1CCCC1)N1CCCC1 (stereo not shown) [Example 7, N-{4-[4-(Benzyloxy)-3-chloroanilino]-3-cyano-7-ethoxy-6-quinolinyl}-3,4-di(1-pyrrolidinyl)butanamide]",–,–,0.23 µg/mL,0.28 µg/mL,–,–,–,0.0025 µg/mL,0.37 µg/mL,0.35 µg/mL,0.014 µg/mL,0.017 µg/mL,–,0.0337 µM,–,"inhibition of tumor growth (in words) ([9]; 30 mg/kg i.p.): significantly inhibited tumor growth; tumors in the control mice larger than tumors in treated mice (fold) ([9]; 30 mg/kg i.p., day 14): 8.5 times; % T/C Day 7 [9, 10]: 15%; Mean Tumor Weight Day 7 [9, 10]: 39 mg; % T/C Day 14 [9, 11]: 12%; Mean Tumor Weight Day 14 [9, 11]: 261 mg; Mean Tumor Weight Day 21 ([9]; 30 mg/kg/dose IP on days 1, 3, 5, 7, 9 and 11, day 21): 1849 mg; S/T = No. Survivors/No. on Day +28 post tumor cell implantation ([9]; 30 mg/kg/dose IP on days 1, 3, 5, 7, 9 and 11, day +28): 10/10"
"CCOc1cc2ncc(C#N)c(Nc3ccc(F)c(Cl)c3)c2cc1NC(=O)CC(CN(C)C)SCC(NC(=O)CC[C@@H](N)C(=O)O)C(=O)NCC(=O)O (stereo partly drawn) [Example 8, (2R)-2-amino-5-({2-[(carboxymethyl)amino]-1-[({3-{[4-(3-chloro-4-fluoroanilino)-3-cyano-7-ethoxy-6-quinolinyl]amino}-1-[(dimethylamino)methyl]-3-oxopropyl}sulfanyl)methyl]-2-oxoethyl}amino)-5-oxopentanoic acid]",–,–,> 5 µg/mL,–,0.21 µg/mL,0.2 µg/mL,–,–,–,> 5 µg/mL,–,–,–,0.854 µM,–,IC50 [8]: 2.19 µM
"CCOc1cc2ncc(C#N)c(Nc3ccc(OCc4ccccc4)c(Cl)c3)c2cc1NC(=O)CC(CN(C)C)N(C)C (stereo not shown) [Example 9, N-{4-[4-(Benzyloxy)-3-chloroanilino]-3-cyano-7-ethoxy-6-quinolinyl}-3,4-bis(dimethylamino)butanamide]",–,–,–,–,–,–,–,–,–,–,–,–,102 to 104 °C,–,–,–
